Measured values published in ChEMBL document CHEMBL1128360 (J Med Chem, 1995).

Target: T1, 5-hydroxytryptamine receptor 1A (Rattus norvegicus, UniProt P19327)
T1 sequence (P19327 whole entry): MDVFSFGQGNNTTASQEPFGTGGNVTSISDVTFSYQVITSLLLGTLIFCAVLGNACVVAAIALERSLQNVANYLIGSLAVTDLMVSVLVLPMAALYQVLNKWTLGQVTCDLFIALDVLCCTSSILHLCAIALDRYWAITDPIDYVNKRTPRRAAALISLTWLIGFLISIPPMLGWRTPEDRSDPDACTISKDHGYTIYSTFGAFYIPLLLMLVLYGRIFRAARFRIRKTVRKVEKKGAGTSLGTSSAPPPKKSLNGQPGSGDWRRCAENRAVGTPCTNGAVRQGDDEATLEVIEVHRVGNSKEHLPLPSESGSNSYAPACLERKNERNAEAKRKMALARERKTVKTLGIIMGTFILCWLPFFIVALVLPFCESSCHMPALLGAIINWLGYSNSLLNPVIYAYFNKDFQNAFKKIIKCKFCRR
Assay: Inhibitory affinity constant against 5-hydroxytryptamine 1A receptor

With `CC1(C)CC(=O)N(CCCCN2CCN(c3ccc4ccccc4n3)CC2)C(=O)C1` the Ki was 10.5 nM.
